SMILES strings stand for the structures. In brackets after ≈: the same amount, converted by molar mass. Activity calls are given as the source filed them. The rule behind the calls is not given here.

Experimental findings from ChEMBL document CHEMBL4043122, “Discovery of spiro[indole-3,2'-pyrrolidin]-2(1H)-one based inhibitors targeting Brr2, a core component of the U5 snRNP” (Bioorg Med Chem, 2017) are described below.

Data set [1] deals with Eukaryotic initiation factor 4A-III (Homo sapiens, UniProt P38919). The experiment in a line: Inhibition of MLN51-induced full length recombinant human N-terminal His6/SUMO-tagged eIF4A3 RNA dependent ATPase activity expressed in Escherichia coli BL21(DE3) using single stranded poly(U) RNA as substrate after 30 mins by ADP-Glo luminescence assay.
For data set [2], the target named is T1, U5 small nuclear ribonucleoprotein 200 kDa helicase (Homo sapiens, UniProt O75643). Description: Inhibition of full length recombinant human N-terminal His-tagged BRR2 RNA dependent ATPase activity expressed in baculovirus infected Sf9 cells using single stranded poly(U) RNA as substrate after 30 mins by ADP-Glo luminescence assay. On the technique in general: ADP-Glo turns the ADP formed in a reaction into a luminescent signal.

The target in data set [3] is Eukaryotic initiation factor 4A-I (Homo sapiens, UniProt P60842). Description: Inhibition of elF4G-induced full length recombinant human N-terminal His6-SUMO-tagged eIF4A1 RNA dependent ATPase activity expressed in Escherichia coli BL21(DE3) using single stranded poly(U) RNA as substrate after 30 mins by ADP-Glo luminescence assay.
Data set [4] addresses T1, U5 small nuclear ribonucleoprotein 200 kDa helicase. The experiment in a line: Inhibition of full length recombinant human N-terminal His-tagged BRR2 helicase activity expressed in baculovirus infected Sf9 cells using 5'-[FITC]-UUCCCCUGCAUAAC-3'/5'-GUUAUGCAGGGGAACCAACGCAUAUCAGUGAGGAUU-3' RNA as substrate at 100 uM after 10 mins in presence of ATP by PAGE analysis.
The nature of data set [5]: Permeability of the compound at pH 7.4 by PAMPA. The format is physicochemical. The note with it: read-out: permeability.
Data set [6] in a line: Solubility of the compound at pH 6.8. Type of data set: physicochemical. The note with it: buffer.
The target in data set [7] is T2, ATP-dependent RNA helicase DHX29 (Homo sapiens, UniProt Q7Z478).
T2 sequence (Q7Z478 whole entry): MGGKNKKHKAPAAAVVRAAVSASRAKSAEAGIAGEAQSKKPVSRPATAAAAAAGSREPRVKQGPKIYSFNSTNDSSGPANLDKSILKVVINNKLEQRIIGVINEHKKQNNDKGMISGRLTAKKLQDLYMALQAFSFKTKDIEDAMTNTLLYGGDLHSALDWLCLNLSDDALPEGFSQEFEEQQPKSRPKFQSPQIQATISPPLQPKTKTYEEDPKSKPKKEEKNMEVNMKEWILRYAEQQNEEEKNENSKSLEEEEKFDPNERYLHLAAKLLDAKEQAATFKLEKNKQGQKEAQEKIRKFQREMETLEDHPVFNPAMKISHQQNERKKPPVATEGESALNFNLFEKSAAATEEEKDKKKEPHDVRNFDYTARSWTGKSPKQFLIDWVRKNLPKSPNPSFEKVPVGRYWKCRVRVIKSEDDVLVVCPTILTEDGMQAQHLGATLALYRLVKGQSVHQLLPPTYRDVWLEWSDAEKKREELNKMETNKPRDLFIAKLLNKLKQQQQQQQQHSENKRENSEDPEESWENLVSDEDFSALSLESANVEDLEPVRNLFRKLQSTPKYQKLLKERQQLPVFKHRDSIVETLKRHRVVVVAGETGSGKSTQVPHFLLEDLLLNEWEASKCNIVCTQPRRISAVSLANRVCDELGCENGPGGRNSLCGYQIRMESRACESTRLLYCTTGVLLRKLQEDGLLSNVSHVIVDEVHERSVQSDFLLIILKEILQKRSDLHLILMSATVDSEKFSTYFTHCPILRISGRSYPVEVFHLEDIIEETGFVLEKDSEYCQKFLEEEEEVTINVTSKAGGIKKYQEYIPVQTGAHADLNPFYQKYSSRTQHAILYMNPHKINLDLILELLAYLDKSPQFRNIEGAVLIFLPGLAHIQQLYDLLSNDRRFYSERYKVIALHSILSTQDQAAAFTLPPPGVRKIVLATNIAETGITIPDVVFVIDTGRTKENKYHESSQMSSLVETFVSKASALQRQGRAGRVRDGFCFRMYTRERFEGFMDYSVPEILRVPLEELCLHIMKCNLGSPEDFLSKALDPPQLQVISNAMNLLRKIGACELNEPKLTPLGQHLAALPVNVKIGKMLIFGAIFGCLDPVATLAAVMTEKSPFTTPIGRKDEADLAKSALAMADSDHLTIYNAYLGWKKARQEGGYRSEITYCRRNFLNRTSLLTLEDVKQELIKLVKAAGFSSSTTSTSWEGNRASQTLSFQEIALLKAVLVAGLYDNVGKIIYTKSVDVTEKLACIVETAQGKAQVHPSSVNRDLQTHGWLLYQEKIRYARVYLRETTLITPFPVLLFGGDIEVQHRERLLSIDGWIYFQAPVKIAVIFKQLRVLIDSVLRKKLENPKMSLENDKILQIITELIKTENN
The experiment in a line: Inhibition of full length recombinant human N-terminal His-FLAG-tagged DHX29 RNA dependent ATPase activity expressed in baculovirus infected Sf9 insect cells using single stranded poly(U) RNA as substrate after 30 mins by ADP-Glo luminescence assay.

The target of data set [8] is T1, U5 small nuclear ribonucleoprotein 200 kDa helicase. Description: Inhibition of full length recombinant human N-terminal His-tagged BRR2 helicase activity expressed in baculovirus infected Sf9 cells using 5'-[FITC]-UUCCCCUGCAUAAC-3'/5'-GUUAUGCAGGGGAACCAACGCAUAUCAGUGAGGAUU-3' RNA as substrate after 10 mins in presence of ATP by PAGE analysis.

T1 sequence (O75643 whole entry): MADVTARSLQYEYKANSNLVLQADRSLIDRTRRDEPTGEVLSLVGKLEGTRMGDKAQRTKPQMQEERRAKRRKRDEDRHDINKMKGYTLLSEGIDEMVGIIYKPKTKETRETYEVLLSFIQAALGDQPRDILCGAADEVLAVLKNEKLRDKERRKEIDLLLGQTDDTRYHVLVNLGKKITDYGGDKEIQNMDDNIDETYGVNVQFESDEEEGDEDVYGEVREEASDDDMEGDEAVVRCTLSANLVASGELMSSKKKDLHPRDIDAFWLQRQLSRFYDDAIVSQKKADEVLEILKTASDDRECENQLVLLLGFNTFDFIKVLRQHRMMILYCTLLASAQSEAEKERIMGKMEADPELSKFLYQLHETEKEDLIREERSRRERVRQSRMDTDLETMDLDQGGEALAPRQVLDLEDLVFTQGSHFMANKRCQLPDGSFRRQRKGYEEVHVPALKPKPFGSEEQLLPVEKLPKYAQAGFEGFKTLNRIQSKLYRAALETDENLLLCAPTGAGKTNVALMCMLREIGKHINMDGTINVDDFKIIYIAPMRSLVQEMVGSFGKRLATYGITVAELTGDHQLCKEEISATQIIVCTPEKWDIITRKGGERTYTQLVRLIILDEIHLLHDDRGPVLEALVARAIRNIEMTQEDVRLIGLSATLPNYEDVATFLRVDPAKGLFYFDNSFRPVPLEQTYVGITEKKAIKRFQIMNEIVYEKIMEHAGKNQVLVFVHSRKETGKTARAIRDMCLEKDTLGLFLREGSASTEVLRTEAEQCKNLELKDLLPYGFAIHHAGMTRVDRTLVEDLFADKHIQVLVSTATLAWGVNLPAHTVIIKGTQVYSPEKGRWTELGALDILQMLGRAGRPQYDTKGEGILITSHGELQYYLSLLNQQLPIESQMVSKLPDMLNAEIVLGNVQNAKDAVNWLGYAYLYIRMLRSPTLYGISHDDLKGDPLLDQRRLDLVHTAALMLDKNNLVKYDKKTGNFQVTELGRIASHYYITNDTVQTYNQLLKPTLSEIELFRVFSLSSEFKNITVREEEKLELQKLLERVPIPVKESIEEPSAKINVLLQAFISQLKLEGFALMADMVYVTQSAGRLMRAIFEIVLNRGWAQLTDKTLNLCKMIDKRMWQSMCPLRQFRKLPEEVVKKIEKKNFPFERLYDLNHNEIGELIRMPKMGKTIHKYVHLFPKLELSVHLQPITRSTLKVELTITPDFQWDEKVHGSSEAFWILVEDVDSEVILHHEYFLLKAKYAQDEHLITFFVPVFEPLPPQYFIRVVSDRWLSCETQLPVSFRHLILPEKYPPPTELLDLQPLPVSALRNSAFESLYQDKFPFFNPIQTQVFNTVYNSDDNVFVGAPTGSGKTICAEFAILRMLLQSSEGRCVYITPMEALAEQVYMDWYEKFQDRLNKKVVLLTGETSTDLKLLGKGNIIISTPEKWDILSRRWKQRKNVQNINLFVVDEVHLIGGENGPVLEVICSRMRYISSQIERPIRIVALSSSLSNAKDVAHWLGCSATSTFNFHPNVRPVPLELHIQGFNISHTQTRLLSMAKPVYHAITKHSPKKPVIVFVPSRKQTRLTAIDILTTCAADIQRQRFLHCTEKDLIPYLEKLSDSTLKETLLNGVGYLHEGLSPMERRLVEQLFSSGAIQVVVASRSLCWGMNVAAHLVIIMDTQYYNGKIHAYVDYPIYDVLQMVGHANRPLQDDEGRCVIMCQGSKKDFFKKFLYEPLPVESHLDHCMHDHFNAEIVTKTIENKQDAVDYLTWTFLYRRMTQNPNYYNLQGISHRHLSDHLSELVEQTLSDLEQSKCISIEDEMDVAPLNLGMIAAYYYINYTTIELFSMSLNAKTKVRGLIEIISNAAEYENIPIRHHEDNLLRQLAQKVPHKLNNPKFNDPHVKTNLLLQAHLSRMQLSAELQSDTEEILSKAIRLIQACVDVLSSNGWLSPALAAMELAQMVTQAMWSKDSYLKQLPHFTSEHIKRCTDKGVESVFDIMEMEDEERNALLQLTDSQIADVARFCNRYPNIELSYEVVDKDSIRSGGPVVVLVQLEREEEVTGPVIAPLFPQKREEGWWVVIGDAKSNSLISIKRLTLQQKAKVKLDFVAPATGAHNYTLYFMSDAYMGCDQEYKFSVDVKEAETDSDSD
Sequence of Eukaryotic initiation factor 4A-III (P38919 whole entry): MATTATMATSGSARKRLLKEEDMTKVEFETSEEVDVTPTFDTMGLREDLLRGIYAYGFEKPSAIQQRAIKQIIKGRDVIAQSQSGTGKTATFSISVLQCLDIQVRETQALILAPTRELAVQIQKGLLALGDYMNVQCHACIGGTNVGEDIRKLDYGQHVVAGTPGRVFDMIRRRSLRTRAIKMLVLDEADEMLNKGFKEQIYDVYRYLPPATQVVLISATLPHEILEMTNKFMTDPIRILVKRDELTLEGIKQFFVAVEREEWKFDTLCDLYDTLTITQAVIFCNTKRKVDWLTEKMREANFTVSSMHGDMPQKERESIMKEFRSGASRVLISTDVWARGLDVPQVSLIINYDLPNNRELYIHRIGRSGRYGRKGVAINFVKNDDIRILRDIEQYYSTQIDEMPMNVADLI
Sequence of Eukaryotic initiation factor 4A-I (P60842 whole entry): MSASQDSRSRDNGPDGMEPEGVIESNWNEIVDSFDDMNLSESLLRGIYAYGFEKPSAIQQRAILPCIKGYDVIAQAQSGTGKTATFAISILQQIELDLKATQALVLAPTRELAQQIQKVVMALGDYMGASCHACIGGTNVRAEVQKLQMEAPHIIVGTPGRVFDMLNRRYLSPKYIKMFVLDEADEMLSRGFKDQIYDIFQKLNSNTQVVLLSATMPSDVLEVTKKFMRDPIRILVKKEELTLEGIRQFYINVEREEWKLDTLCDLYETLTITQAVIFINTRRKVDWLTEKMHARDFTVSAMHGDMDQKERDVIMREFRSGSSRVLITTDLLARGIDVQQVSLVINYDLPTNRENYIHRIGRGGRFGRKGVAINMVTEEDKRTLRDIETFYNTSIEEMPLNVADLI

As usually defined, the IC50 is the concentration that inhibits the measured activity by half. What is called solubility is the concentration that dissolves in the medium under given conditions. Low readings indicate little dissolved substance, high ones much dissolved substance. For the compound `CC(C)C[C@@H]1C[C@H](C)[C@@]2(C(=O)Nc3ccc(F)cc32)N1C(=O)c1cn(C)cn1`, the IC50 in data set [1] is more than 100 µM; in data set [2], 84 µM; in data set [3], more than 100 µM. In addition, the inhibition entry in data set [4] was “inactive”. In addition, the Papp in data set [5] was 16.8 ×10⁻⁶ cm/s. This compound returned a solubility in data set [6] of more than 110 µg/mL.
In the case of `CC(C)C[C@H]1C[C@@H](C)[C@]2(C(=O)Nc3ccc(F)cc32)N1C(=O)c1cn(C)cn1` (racemic), the IC50 in data set [2] was 0.042 µM.
Turning to `CC(C)C[C@H]1C[C@@H](C)[C@]2(C(=O)Nc3ccc(F)cc32)N1C(=O)c1cn(Cc2ccccc2)cn1`, the IC50 in data set [1] was more than 100 µM; in data set [2], 0.011 µM; in data set [3], more than 100 µM; in data set [7], more than 100 µM; in data set [8], 0.35 µM. Besides, in data set [5], the Papp was 18.2 ×10⁻⁶ cm/s. In data set [6], this compound had a solubility of 45 µg/mL (≈ 97.7 µM).
For the compound `CC(C)C[C@@H]1C[C@H](C)[C@@]2(C(=O)Nc3ccc(F)cc32)N1C(=O)c1cn(Cc2ccccc2)cn1`, the IC50 in data set [1], in data set [2] and in data set [3] was more than 100 µM in each case. Further, the inhibition result in data set [4] is “inactive”. Besides, the Papp in data set [5] came out at 19.5 ×10⁻⁶ cm/s. The same compound had a solubility in data set [6] of 46 µg/mL (≈ 99.9 µM).
In the case of `CC(C)C[C@H]1C[C@@H](C)[C@]2(C(=O)Nc3ccc(F)cc32)N1C(=O)c1cn(Cc2ccccc2)cn1` (racemic), the IC50 in data set [2] was 0.024 µM.
As for `CC(C)C[C@H]1C[C@@H](C)[C@]2(C(=O)Nc3ccc(F)cc32)N1C(=O)c1cn(C)cn1`, the IC50 in data set [1] is more than 100 µM; in data set [2] it was 0.021 µM; in data set [3] it was more than 100 µM; in data set [7] it was more than 100 µM; in data set [8], 0.48 µM. For the same compound, in data set [5], the Papp was found to be 18.3 ×10⁻⁶ cm/s. Also, the solubility in data set [6] was more than 99 µg/mL.
